{
  "source": "patent US20090062273A1",
  "about": "“3-H-pyrazolopyridines and salts thereof, pharmaceutical compositions comprising same, methods of preparing same and uses of same” (priority 2006, published 2009)",
  "note": "pIC50: −log10 of the molar value.",
  "data": [
    {"target": "Tie2 (Homo sapiens, UniProt Q02763)", "sequence (Q02763 23-1124, species assumed)": "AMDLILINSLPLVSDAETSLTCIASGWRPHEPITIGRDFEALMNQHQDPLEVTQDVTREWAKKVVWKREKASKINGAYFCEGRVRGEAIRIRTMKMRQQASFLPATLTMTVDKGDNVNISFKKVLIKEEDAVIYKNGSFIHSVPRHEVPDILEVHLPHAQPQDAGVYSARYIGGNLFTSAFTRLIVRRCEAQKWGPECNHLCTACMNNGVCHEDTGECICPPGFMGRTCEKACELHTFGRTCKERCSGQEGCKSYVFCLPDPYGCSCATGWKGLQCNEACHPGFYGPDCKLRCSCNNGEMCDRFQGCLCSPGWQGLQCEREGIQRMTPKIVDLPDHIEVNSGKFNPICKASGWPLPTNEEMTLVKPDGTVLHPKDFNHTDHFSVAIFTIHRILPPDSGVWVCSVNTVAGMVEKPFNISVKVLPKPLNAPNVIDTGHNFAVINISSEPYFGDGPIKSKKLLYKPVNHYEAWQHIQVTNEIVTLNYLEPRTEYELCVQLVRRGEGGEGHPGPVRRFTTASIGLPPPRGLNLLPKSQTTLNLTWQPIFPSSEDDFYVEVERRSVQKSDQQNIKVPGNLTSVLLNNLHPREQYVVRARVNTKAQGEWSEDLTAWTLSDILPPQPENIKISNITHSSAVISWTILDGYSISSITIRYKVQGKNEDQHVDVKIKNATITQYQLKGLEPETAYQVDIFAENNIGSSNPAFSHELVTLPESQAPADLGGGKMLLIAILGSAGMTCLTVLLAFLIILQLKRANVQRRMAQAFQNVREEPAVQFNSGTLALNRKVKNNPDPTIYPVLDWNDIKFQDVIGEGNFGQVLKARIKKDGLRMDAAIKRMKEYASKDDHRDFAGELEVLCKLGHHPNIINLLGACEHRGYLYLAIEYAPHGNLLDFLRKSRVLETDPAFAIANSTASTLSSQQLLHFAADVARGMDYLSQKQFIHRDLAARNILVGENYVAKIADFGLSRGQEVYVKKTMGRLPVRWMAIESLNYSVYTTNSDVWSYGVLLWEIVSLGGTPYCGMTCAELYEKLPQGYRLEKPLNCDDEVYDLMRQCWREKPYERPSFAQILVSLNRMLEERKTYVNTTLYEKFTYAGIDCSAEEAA", "test": "Tie2 ELISA assay (cellular Tie2 autophosphorylation)", "assay_type": "cell-based", "parameters": "expressed in transfected cells; host or cells: CHO (CHO Tie2/DHFR)", "conditions": "CHO cells stably transfected with Tie2, stimulated by angiopoietin-2; Tie2 autophosphorylation by sandwich-ELISA; read-out: Tie 2 activity (assay 1)", "description": "Cellular activity of compounds of the present invention as inhibitors of Tie2 kinase activity was measured employing a Tie2 ELISA assay as described in the following paragraphs. Herein CHO cell-cultures, which are stably transfected by known techniques with Tie2 using DHFR deficiency as selection marker, are stimulated by angiopoietin-2. The specific autophosphorylation of Tie2 receptors is quantified with a sandwich-ELISA using anti-Tie2 antibodies for catch and anti-phosphotyrosine antibodies coupled to HRP for detection.\n• 96 well tissue culture plate, sterile, Greiner • 96 well FluoroNunc plate MaxiSorp Surface C, Nunc • 96 well plate polypropylene for compound dilution in DMSO • CHO Tie2/DHFR (transfected cells) • PBS−; PBS++, DMSO • MEM alpha Medium with Glutamax-I without Ribonucleosides and Deoxyribonucleosides (Gibco #32561-029) • with 10% FCS after dialysis! and 1% PenStrep • Lysis buffer: 1 Tablet “Complete” protease inhibitor • 1 cap Vanadate (1 mL>40 mg/mL; working solution 2 mM) • ad 50 mL with Duschl-Puffer • pH 7.6 • Anti-Tie2-antibody 1:425 in Coating Buffer pH 9.6 • Stock solution: 1.275 mg/mL>working.: 3 μg/mL • PBST: 2 bottles PBS (10×)+10 ml Tween, fill up with VE-water • RotiBlock 1:10 in VE-water • Anti-Phosphotyrosine HRP-Conjugated 1:10000 in 3% TopBlock • 3% TopBlock in PBST • BM Chemiluminescence ELISA Substrate (POD) • solution B 1:100 solution A • SF9 cell culture medium • Ang2-Fc in SF9 cell culture medium\n• Dispense 5×10^4 cells/well/98 μL in 96 well tissue culture plate • Incubate at 37° C./5% CO2 • After 24 h add compounds according to desired concentrations • Add also to control and stimulated values without compounds 2 μL DMSO • And mix for a few min at room temperature • Add 100 μL Ang2-Fc to all wells except control, which receives insect medium • Incubate 20 min at 37° C. • Wash 3× with PBS++ • Add 100 μl Lysis buffer/well and shake a couple of min at room temperature • Store lysates at […] before utilizing for the ELISA\n• Coat 96 well FluoroNunc Plate MaxiSorp Surface C with anti-Tie2 mAb 1:425 in Coating buffer pH 9.6; 100 μL/well overnight at 4° C. • Wash 2× with PBST • Block plates with 250 μL/well RotiBlock 1:10 in VE-water • Incubate for 2 h at room temperature or overnight at 4° C. shaking • Wash 2× in PBST • Add thawed lysates to wells and incubate overnight shaking at 4° C. • Wash 2× with PBST • Add 100 μL/well anti-Phosphotyrosine HRP-Conjugated 1:10000 in 3% TopBlock (3% TopBlock in PBST) and incubate overnight under shaking • Wash 6× with PBST • Add 100 μL/well BM Chemiluminescence ELISA Substrate (POD) solutions 1 und 2 (1:100) • Determine luminescence with the LumiCount. Assay 2: Tie-2-Kinase HTRF-Assay without Kinase Preactivation", "values": [
      {"smiles": "Cn1ncc2c(-c3ccc(NC(=O)Nc4cc(C(F)(F)F)ccc4F)cc3)cncc21", "note": "[Example 1.2, 1-(2-Fluoro-5-trifluoromethyl-phenyl)-3-[4-(1-methyl-1H-pyrazolo[3,4-c]pyridin-4-yl)-phenyl]-urea]", "pIC50": "> 6.30"},
      {"smiles": "Cc1ccc(F)c(NC(=O)Nc2ccc(-c3cncc4c3cnn4C)cc2)c1", "note": "[Example 1.3, 1-(2-Fluoro-5-methyl-phenyl)-3-[4-(1-methyl-1H-pyrazolo[3,4-c]pyridin-4-yl)-phenyl]-urea]", "pIC50": "> 6.30"},
      {"smiles": "Cn1ncc2c(-c3ccc(NC(=O)Nc4cccc(C(F)(F)F)c4)cc3)cncc21", "note": "[Example 1.4, 1-[4-(1-Methyl-1H-pyrazolo[3,4-c]pyridin-4-yl)-phenyl]-3-(3-trifluoromethyl-phenyl)-urea]", "pIC50": "> 6.30"},
      {"smiles": "CCc1cccc(NC(=O)Nc2ccc(-c3cncc4c3cnn4C)cc2)c1", "note": "[Example 1.5, 1-(3-Ethyl-phenyl)-3-[4-(1-methyl-1H-pyrazolo[3,4-c]pyridin-4-yl)-phenyl]-urea]", "pIC50": "> 6.30"},
      {"smiles": "Cn1ncc2c(-c3ccc(NC(=O)Nc4cc(C(F)(F)F)ccn4)cc3)cncc21", "note": "[Example 1.9, 1-[4-(1-Methyl-1H-pyrazolo[3,4-c]pyridin-4-yl)-phenyl]-3-(4-trifluoromethyl-pyridin-2-yl)-urea]", "pIC50": "> 6.30"},
      {"smiles": "Cn1ncc2c(-c3ccc(NC(=O)Nc4cc(C(F)(F)F)ccc4Cl)cc3)cncc21", "note": "[Example 1.13, 1-(2-Chloro-5-trifluoromethyl-phenyl)-3-[4-(1-methyl-1H-pyrazolo[3,4-c]pyridin-4-yl)-phenyl]-urea]", "pIC50": "> 6.30"},
      {"smiles": "Cn1ncc2c(-c3ccc(NC(=O)Nc4cccc(C(F)(F)F)c4)c(F)c3)cncc21", "note": "[Example 3.1, 1-[2-Fluoro-4-(1-methyl-1H-pyrazolo[3,4-c]pyridin-4-yl)-phenyl]-3-(3-trifluoromethyl-phenyl)-urea]", "pIC50": "> 6.30"},
      {"smiles": "Cc1cc(-c2cncc3c2cnn3C)ccc1NC(=O)Nc1cccc(C(F)(F)F)c1", "note": "[Example 4.1, 1-[2-Methyl-4-(1-methyl-1H-pyrazolo[3,4-c]pyridin-4-yl)-phenyl]-3-(3-trifluoromethyl-phenyl)-urea]", "pIC50": "> 6.30"},
      {"smiles": "CN(C(=O)Nc1cccc(C(F)(F)F)c1)c1ccc(-c2cncc3c2cnn3C)cc1", "note": "[Example 6.1, 1-Methyl-1-[4-(1-methyl-1H-pyrazolo[3,4-c]pyridin-4-yl)-phenyl]-3-(3-trifluoromethyl-phenyl)-urea]", "pIC50": "6.00 to 6.30"},
      {"smiles": "Cn1ncc2c(-c3ccc(NC(=O)Nc4cc(C(F)(F)F)ccc4F)c(F)c3)cncc21", "note": "[Example 6.3, 1-[2-Fluoro-4-(1-methyl-1H-pyrazolo[3,4-c]pyridin-4-yl)-phenyl]-3-(2-fluoro-5-trifluoromethyl-phenyl)-urea]", "pIC50": "> 6.30"},
      {"smiles": "CN1CCN(Cc2ccc(NC(=O)Nc3ccc(-c4cncc5c4cnn5C)cc3)cc2C(F)(F)F)CC1", "note": "[Example 6.4, 1-[4-(4-Methyl-piperazin-1-ylmethyl)-3-trifluoromethyl-phenyl]-3-[4-(1-methyl-1H-pyrazolo[3,4-c]pyridin-4-yl)-phenyl]-urea]", "pIC50": "> 6.30"},
      {"smiles": "O=C(Nc1ccc(-c2cncc3c2cnn3CCO)cc1F)Nc1cc(C(F)(F)F)ccc1F", "note": "[Example 8.1, 1-{2-Fluoro-4-[1-(2-hydroxy-ethyl)-1H-pyrazolo[3,4-c]pyridin-4-yl]-phenyl}-3-(2-fluoro-5-trifluoromethyl-phenyl)-urea]", "pIC50": "> 6.30"},
      {"smiles": "O=C(Nc1ccc(-c2cncc3c2cnn3CCO)cc1)Nc1cc(C(F)(F)F)ccc1F", "note": "[Example 8.2, 1-(2-Fluoro-5-trifluoromethyl-phenyl)-3-{4-[1-(2-hydroxy-ethyl)-1H-pyrazolo[3,4-c]pyridin-4-yl]-phenyl}-urea]", "pIC50": "> 6.30"},
      {"smiles": "O=C(Nc1cccc(C(F)(F)F)c1)Nc1ccc(-c2cncc3c2cnn3CCO)cc1F", "note": "[Example 8.5, 1-{2-Fluoro-4-[1-(2-hydroxy-ethyl)-1H-pyrazolo[3,4-c]pyridin-4-yl]-phenyl}-3-(3-trifluoromethyl-phenyl)-urea]", "pIC50": "> 6.30"},
      {"smiles": "CN1CCN(Cc2ccc(NC(=O)Nc3ccc(-c4cncc5c4cnn5CCO)cc3)cc2C(F)(F)F)CC1", "note": "[Example 8.6, 1-{4-[1-(2-Hydroxy-ethyl)-1H-pyrazolo[3,4-c]pyridin-4-yl]-phenyl}-3-[4-(4-methyl-piperazin-1-ylmethyl)-3-trifluoromethyl-phenyl]-urea]", "pIC50": "> 6.30"},
      {"smiles": "CCn1ncc2c(-c3ccc(NC(=O)Nc4cc(C(F)(F)F)ccc4F)cc3)cncc21", "note": "[Example 10.5, 1-[4-(1-Ethyl-1H-pyrazolo[3,4-c]pyridin-4-yl)-phenyl]3-(2-fluoro-5-trifluoromethyl-phenyl)-urea]", "pIC50": "> 6.30"},
      {"smiles": "CCn1ncc2c(-c3ccc(NC(=O)Nc4cccc(C(F)(F)F)c4)c(F)c3)cncc21", "note": "[Example 11.1, 1-[4-(1-Ethyl-1H-pyrazolo[3,4-c]pyridin-4-yl)-2-fluoro-phenyl]-3-(3-trifluoromethyl-phenyl)-urea]", "pIC50": "> 6.30"},
      {"smiles": "CCn1ncc2c(-c3ccc(NC(=O)Nc4cc(C(F)(F)F)ccc4F)c(F)c3)cncc21", "note": "[Example 11.2, 1-[4-(1-Ethyl-1H-pyrazolo[3,4-c]pyridin-4-yl)-2-fluoro-phenyl]-3-(2-fluoro-5-trifluoromethyl-phenyl)-urea]", "pIC50": "> 6.30"},
      {"smiles": "CCn1ncc2c(-c3ccc(NC(=O)Nc4cc(C)ccc4F)c(F)c3)cncc21", "note": "[Example 11.3, 1-[4-(1-Ethyl-1H-pyrazolo[3,4-c]pyridin-4-yl)-2-fluoro-phenyl]-3-(2-fluoro-5-methyl-phenyl)-urea]", "pIC50": "> 6.30"},
      {"smiles": "COCCn1ncc2c(-c3ccc(NC(=O)Nc4cccc(C(F)(F)F)c4)cc3)cncc21", "note": "[Example 12.1, 1-{4-[1-(2-Methoxy-ethyl)-1H-pyrazolo[3,4-c]pyridin-4-yl]-phenyl}-3-(3-trifluoromethyl-phenyl)-urea]", "pIC50": "> 6.30"},
      {"smiles": "COCCn1ncc2c(-c3ccc(NC(=O)Nc4cc(C)ccc4F)cc3)cncc21", "note": "[Example 12.3, 1-(2-Fluoro-5-methyl-phenyl)-3-{4-[1-(2-methoxy-ethyl)-1H-pyrazolo[3,4-c]pyridin-4-yl]-phenyl}-urea]", "pIC50": "> 6.30"},
      {"smiles": "COCCn1ncc2c(-c3ccc(NC(=O)Nc4cccc(C(F)(F)F)c4)c(F)c3)cncc21", "note": "[Example 12.4, 1-{2-Fluoro-4-[1-(2-methoxy-ethyl)-1H-pyrazolo[3,4-c]pyridin-4-yl]-phenyl}-3-(3-trifluoromethyl-phenyl)-urea]", "pIC50": "> 6.30"},
      {"smiles": "COCCn1ncc2c(-c3ccc(NC(=O)Nc4cc(C(F)(F)F)ccc4F)c(F)c3)cncc21", "note": "[Example 12.5, 1-{2-Fluoro-4-[1-(2-methoxy-ethyl)-1H-pyrazolo[3,4-c]pyridin-4-yl]-phenyl}-3-(2-fluoro-5-trifluoromethyl-phenyl)-urea]", "pIC50": "> 6.30"},
      {"smiles": "Cn1ncc2c(-c3ccc(NC(=O)Nc4cc(C(C)(C)C)on4)cc3)cncc21", "note": "[Example 13.2, 1-(5-tert-Butyl-isoxazol-3-yl)-3-[4-(1-methyl-1H-pyrazolo[3,4-c]pyridin-4-yl)-phenyl]-urea]", "pIC50": "> 6.30"},
      {"smiles": "Cn1ncc2c(-c3ccc(NC(=O)Nc4cc(C(C)(C)C)nn4-c4ccccc4)cc3)cncc21", "note": "[Example 13.4, 1-(5-tert-Butyl-2-phenyl-2H-pyrazol-3-yl)-13-[4-(1-methyl-1H-pyrazolo[3,4-c]pyridin-4-yl)-phenyl]-urea]", "pIC50": "> 6.30"},
      {"smiles": "CN1CCN(Cc2ccc(NC(=O)Nc3ccc(-c4cncc5c4cnn5C)cc3F)cc2C(F)(F)F)CC1", "note": "[Example 13.6, 1-[2-Fluoro-4-(1-methyl-1H-pyrazolo[3,4-c]pyridin-4-yl)-phenyl]-3-[4-(4-methyl-piperazin-1-ylmethyl)-3-trifluoromethyl-phenyl]-urea]", "pIC50": "> 6.30"},
      {"smiles": "CN(C)c1ccc(C(F)(F)F)cc1NC(=O)Nc1ccc(-c2cncc3c2cnn3C)cc1", "note": "[Example 13.11, 1-(2-Dimethylamino-5-trifluoromethyl-phenyl)-3-[4-(1-methyl-1H-pyrazolo[3,4-c]pyridin-4-yl)-phenyl]-urea]", "pIC50": "> 6.30"}
    ]}
  ]
}
